Test results taken from article PMC11407620, “Repurposing auranofin and meclofenamic acid as energy-metabolism inhibitors and anti-cancer drugs” (PLOS ONE, 2024).
Like-named read-outs stand apart in the source and are kept apart here.

Key:
Cervix HeLa cells = experiment: Cell proliferation, 24 h drug exposure; type: cell-based, human; details: Cervix HeLa, 24 h, read-out: IC50 for proliferation cell rate
Description: (§1) All metastatic (breast MDA-MB231, MDA-MB468, cervix HeLa, prostate PC3, colorectal HCT116, COLO205, glioblastoma U373), low-metastatic (breast MCF-7) cancer and non-cancer (fibroblast 3T3, cardiomyocytes H9C2) cell lines (American Type Culture Collection, Rockville, MD, USA) used in this study were cultured in Petri dishes in 20 mL of Dulbecco’s Modified Eagle’s Medium (DMEM, Sigma, MO, USA) supplemented with 10% fetal bovine serum (Biowest, Mexico) and 10,000 U penicillin/streptomycin (Sigma-Aldrich, MO, USA). […] For growth and maintenance, cells were incubated in 5% CO2/95% air at 37°C and kept until 80–90% of confluence was reached. Then, cells were harvested, washed by centrifugation and resuspended in Krebs-Ringer buffer (KR, 125 mM NaCl, 5 mM KCl, 25 mM Hepes, 1 mM MgCl2, 1 mM KH2PO4, 1.4 mM CaCl2, pH 7.4) for further use. For experimentation, cancer cells (3–5 x 10^6 cells) were cultured in DMEM (with 25 mM glucose) for 24 h in the absence of drugs. Afterwards, old-medium was replaced with fresh DMEM medium (with 25 mM glucose) in the absence (control, non-treated cells) or in the presence of logarithmic concentrations of Aur and MA for 24 h more, under the same culture conditions described above. Viability of cultured cells was determined by the trypan blue exclusion assay. The protein concentration was determined by the Lowry method.
(§2) For cell proliferation in the presence of drugs, cancer cells (20 x 10^3 cells/well) were grown in 96-well plates containing DMEM (Sigma-Aldrich) plus 10% bovine fetal serum for 24 h. […] The effect of these drugs on cell proliferation was determined in 96-well plates by the MTT (3-[4,5-dimethyl-thiazol-2-yl]-2,5-diphenyltetrazolium bromide) assay. The viability of cancer cells was > 95% after treatment with drugs.

Glioblastoma U373 cells = experiment: Cell proliferation, 24 h drug exposure; type: cell-based, human; details: Glioblastoma U373, 24 h, read-out: IC50 for proliferation cell rate
Description: as §1, §2

Breast MDA-MB-231 cells = experiment: Cell proliferation, 24 h drug exposure; type: cell-based, human; details: Breast MDA-MB-231, 24 h, read-out: IC50 for proliferation cell rate
Description: as §1
(§3) For cell proliferation in the presence of drugs, cancer cells (20 x 10^3 cells/well) were grown in 96-well plates containing DMEM (Sigma-Aldrich) plus 10% bovine fetal serum for 24 h. Afterwards, Aur or MA (0.01, 0.1, 10 and 100 μM) were added to the cell cultures and incubated for additional 24 h. The effect of these drugs on cell proliferation was determined in 96-well plates by the MTT (3-[4,5-dimethyl-thiazol-2-yl]-2,5-diphenyltetrazolium bromide) assay. The viability of cancer cells was > 95% after treatment with drugs.

HeLa cells = system: HeLa cells; design: method as in PMID 33333716; details: CP alone at doses of Table 5; cited from earlier work
Breast MCF-7 cells = experiment: Cell proliferation, 24 h drug exposure; type: cell-based, human; details: Homo sapiens, MCF7; Breast MCF-7 (low metastatic); 24 h; read-out: IC50 for proliferation cell rate
Description: as §1, §3

Breast MDA-MB-468 cells = experiment: Cell proliferation, 24 h drug exposure; type: cell-based, human; details: Homo sapiens; Breast MDA-MB-468; 24 h; read-out: IC50 for proliferation cell rate
Description: as §1, §3

Colorectal COLO205 cells = experiment: Cell proliferation, 24 h drug exposure; type: cell-based, human; details: Homo sapiens, COLO 205; Colorectal COLO205; 24 h; read-out: IC50 for proliferation cell rate
Description: as §1, §3

Colorectal HCT116 cells = experiment: Cell proliferation, 24 h drug exposure; type: cell-based, human; details: Homo sapiens, HCT-116; Colorectal HCT116; 24 h; read-out: IC50 for proliferation cell rate
Description: as §1, §3

3T3 mouse fibroblasts = experiment: Cell proliferation, 24 h drug exposure (non cancer cells); type: cell-based; details: Fibroblast, 3T3 mouse fibroblasts (non cancer), read-out: IC50 for proliferation cell rate
Description: as §1, §3

[1] = system: H9C2 mouse cardiomyocytes; experiment: as above; type: cell-based; details: read-out: IC50 for proliferation cell rate
Description: as §1, §3

cancer cell lines = experiment: Cancer cell proliferation, pooled over the cell lines of Table 1; type: cell-based, human; details: for IC50: Homo sapiens, cancer cells, 24 h, read-out: IC50 values on cancer cell proliferation (range over cell lines)
Description: as §1, §2

non-cancer cells = experiment: Non-cancer cell proliferation, pooled; type: cell-based; details: Mus musculus, 24 h, read-out: IC50 values for non-cancer cells (range)
Description: as §1, with “For experimentation, cancer cells (3–5 x 10^6 cells) were cultured in DMEM (with 25 mM glucose) for 24 h in the absence of drugs. Afterwards, old-medium was replaced with fresh DMEM medium (with 25 mM glucose) in the absence (control, non-treated cells) or in the presence of logarithmic concentrations of Aur and MA for 24 h more, under the same culture conditions described above.” left out
as §2, with “The viability of cancer cells was > 95% after treatment with drugs.” left out

[2] = system: HeLa, MDA MB-231, and A548 (lung cancer) cells; experiment: Oxygen consumption of cancer cells; type: cell-based; details: Homo sapiens, MDA MB-231, A548 cells
Description: For oxidative phosphorylation (OxPhos) flux, cells (2–5 mg protein/mL) were incubated at 37°C in air saturated KR medium plus 5 mM glucose. To distinguish the oxygen consumption associated to OxPhos, the cells were incubated with 5 μM oligomycin (Sigma-Aldrich, MO, USA), a potent, specific, and permeable inhibitor of the mitochondrial ATP synthase. The net OxPhos rate was determined by using a Clark type electrode, as previously described and by using a high-resolution respirometer (Oroboros Instruments, Innsbruck, Austria) at 37°C. The contribution of OxPhos and glycolysis to the cellular ATP supply was determined, respectively, from the net OxPhos rate (oligomycin-sensitive respiration) multiplied by the ATP/O or P»/O2 ratio that corresponds to 2.5 or 5, and from the rate of lactate production, assuming a stoichiometry of 1 mol of ATP produced per 1 mol of lactate produced.

[3] = system: HeLa, U373, HCT116, MDA-MB-231 and MDA-MB-468 cells; experiment: Cell invasiveness, Boyden chamber; type: cell-based, human; details: perhexiline 4–20 μM; 24 h
Description: The 96-multiwell Boyden chambers (Merck Millipore, MA, USA) assay was performed for cellular invasiveness detection. Cancer cells (5 × 10^4 cells/well) were re-suspended in free-serum DMEM and placed in the upper Boyden chamber compartment. Free-serum DMEM was also placed in the lower compartment of the chamber. Afterwards, the Boyden chamber was placed at 37°C and 95% air/5% CO2 for 24 h. Invasive cancer cells within the lower chamber compartment were detected by using the calcein-AM (60 nM, 1 h) assay at 37°C. Calcein-fluorescence was measured at λexcitation = 485 nm and λemission = 520 nm in a Nunclon microplate reader (Roskilde, Denmark).
S1 Figure. Cancer invasiveness assay in metastatic cancer cells exposed to MA (A) and perhexiline (B) for 24 h. All cancer cell invasiveness was compared with MDA-MB-231 cells, which are cancer cells with the highest invasiveness ability. n=3; *P < 0.05 vs. MDA-MB-231 non-treated cells.

[4] = system: MDA-MB-231 and MDA-MB-468 cells; experiment: Cell migration, wound healing assay; type: cell-based; details: Homo sapiens; 15 μM perhexiline
Description: The wound healing assay was performed for cell migration detection. In petri dishes with full DMEM, cancer cells (5 x 10^6 cells/well) were cultured at 37°C under 95% air and 5% CO2 until 80–90% confluence was attained. Afterwards, cell culture was wounded with a 1 mL pipette tip, washed twice with PBS (155 mM NaCl, 1.5 mM KH2PO4, 2.7 mM NaH2PO4, pH 7.2) and subsequently incubated at 37°C with fresh non-serum DMEM. Cellular migration images were taken in an inverted microscope (Zeiss, Thornwood, NY, USA) after 0 and 24 h incubation time. Using a graduated reticule (Zeiss, Thornwood, NY, USA), cellular migration was assessed from the petri dish’s border to its center distance travelled.
S2 Figure. Migratory capacity in metastatic triple negative breast cancer cells exposed to perhexiline. n=3; *P < 0.05 vs. Control (Non-treated cells)

Prostate PC3 cells = experiment: Cell proliferation, 24 h drug exposure; type: cell-based, human; details: Homo sapiens, PC-3; Prostate PC3; 24 h; read-out: IC50 for proliferation cell rate
Description: as §1, §3

SMILES	IC50 (Cervix HeLa cells)	IC50 (Glioblastoma U373 cells)	IC50 (Breast MDA-MB-231 cells)	effect on proliferation rate, OxPhos, cellular invasiveness (HeLa cells)	IC50 (Cervix HeLa cells; Homo sapiens)	IC50 (Glioblastoma U373 cells; Homo sapiens, U373 MG)	IC50 (Breast MCF-7 cells)	IC50 (Breast MDA-MB-231 cells; Homo sapiens)	IC50 (Breast MDA-MB-468 cells)	IC50 (Colorectal COLO205 cells)	IC50 (Colorectal HCT116 cells)	IC50 (3T3 mouse fibroblasts)	IC50 [1]	IC50 (cancer cell lines)	IC50 (non-cancer cells)	inhibition at 10 µM [2]	inhibition of cell invasiveness [3]	inhibition at 15 µM [4]	IC50 (Prostate PC3 cells)	effect on cancer cell proliferation (cancer cell lines; up to 500 μM, 24 h incubation)
N.N.[Cl][Pt][Cl] [CP, cisplatin]	> 1000 µM	> 1000 µM	72 µM	no effect	–	–	–	–	–	–	–	–	–	–	–	–	–	–	–	–
C1CCC(C(CC2CCCCN2)C2CCCCC2)CC1 (stereo not drawn) [Perhexiline]	–	–	–	–	4 ± 3 µM	18.5 ± 2 µM	20.5 ± 10 µM	11 ± 0.6 µM	15 ± 0.8 µM	16 ± 5 µM	16 ± 7 µM	81.5 ± 8 µM	> 100 µM	4 to 20 µM	30 to 100 µM	36 to 70%	37–53%	50 to 60%	–	–
CCC(C)(C)C(=O)O[C@H]1C[C@@H](C)C=C2C=C[C@H](C)[C@H](CC[C@@H]3C[C@@H](O)CC(=O)O3)[C@H]21 [Simvastatin]	–	–	–	–	31 ± 13 µM	131 ± 41 µM	126 ± 65 µM	111 ± 45 µM	–	–	147 ± 58 µM	222 ± 60 µM	100 ± 32 µM	31 to 147 µM	100 to 222 µM	–	–	–	31 ± 16 µM	–
CC1=C(CC(=O)O)c2cc(F)ccc2/C1=C\c1ccc([S+](C)[O-])cc1 (stereo not drawn) [Sulindac]	–	–	–	–	> 500 µM	> 500 µM	> 500 µM	463 µM	–	–	> 500 µM	> 500 µM	> 500 µM	–	–	–	–	–	–	not significantly affected
